The supplement of paper PMC13207355
Structures can show the parent of a compound that is named as a salt.

Tests used:
Conditions in all cases: exposure time: 72 h
E13 [1] = patient-derived glioblastoma stem cells of classical subtype; assay: surviving fraction (nuclei count normalised to DMSO); higher = more cells surviving (less toxic)
E21 [2] = patient-derived glioblastoma stem cells of mesenchymal subtype; assay: as above
E28 [3] = patient-derived glioblastoma stem cells of classical subtype; assay: as above
E31 [4] = patient-derived glioblastoma stem cells of proneural subtype; assay: as above
E34 [5] = patient-derived glioblastoma stem cells of proneural subtype; assay: as above
E57 [6] = patient-derived glioblastoma stem cells of mesenchymal subtype; assay: as above
FT3469 [7] = normal neural stem cell line; assay: as above
E13 [8] = assay: phenotypic distance (Euclidean, principal components) from DMSO controls (arbitrary units); higher = stronger morphological change
E21 [9] = assay: as above
E28 [10] = assay: as above
E31 [11] = assay: as above
E34 [12] = assay: as above
E57 [13] = assay: as above
FT3469 [14] = assay: as above
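Throughout, for phenotypic distance (Euclidean, principal components) from DMSO controls: cell Painting imaging in 384-well plates, CellProfiler features reduced to at least 20 principal components, Euclidean distance versus same-plate DMSO vehicle wells (0.1% v/v), median over six images per well.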
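Throughout, for surviving fraction (nuclei count normalised to DMSO): nuclei counted by high-content imaging of Hoechst-stained cells in laminin-coated 384-well plates, relative to 0.1% DMSO vehicle wells, with staurosporine as cell-death control.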

CSc1ccc2c(c1)N(CCC1CCCCN1C)c1ccccc1S2 (stereo not drawn) [Thioridazine hydrochloride]
Conditions	phenotypic distance	surviving fraction
E13 [1], 4.1 nM	–	0.922
E13 [1], 12.3 nM	–	0.886
E13 [1], 37 nM	–	0.934
E13 [1], 111.1 nM	–	0.929
E13 [1], 333.3 nM	–	0.939
E13 [1], 1000 nM	–	0.93
E13 [1], 3000 nM	–	0.861
E13 [8], 4.1 nM	0.45	–
E13 [8], 12.3 nM	0.608	–
E13 [8], 37 nM	0.775	–
E13 [8], 111.1 nM	3.1	–
E13 [8], 333.3 nM	0.477	–
E13 [8], 1000 nM	0.686	–
E13 [8], 3000 nM	1.2	–
E21 [2], 4.1 nM	–	0.936
E21 [2], 12.3 nM	–	0.936
E21 [2], 37 nM	–	0.946
E21 [2], 111.1 nM	–	1
E21 [2], 333.3 nM	–	0.935
E21 [2], 1000 nM	–	0.952
E21 [2], 3000 nM	–	1.02
E21 [9], 4.1 nM	1.5	–
E21 [9], 12.3 nM	0.757	–
E21 [9], 37 nM	0.366	–
E21 [9], 111.1 nM	0.452	–
E21 [9], 333.3 nM	0.631	–
E21 [9], 1000 nM	0.422	–
E21 [9], 3000 nM	0.911	–
E28 [3], 4.1 nM	–	1.06
E28 [3], 12.3 nM	–	1.05
E28 [3], 37 nM	–	1.01
E28 [3], 111.1 nM	–	1.06
E28 [3], 333.3 nM	–	1.14
E28 [3], 1000 nM	–	0.893
E28 [3], 3000 nM	–	1.05
E28 [10], 4.1 nM	1.44	–
E28 [10], 12.3 nM	0.64	–
E28 [10], 37 nM	0.64	–
E28 [10], 111.1 nM	0.832	–
E28 [10], 333.3 nM	0.524	–
E28 [10], 1000 nM	0.717	–
E28 [10], 3000 nM	0.589	–
E31 [4], 4.1 nM	–	0.911
E31 [4], 12.3 nM	–	0.899
E31 [4], 37 nM	–	1.03
E31 [4], 111.1 nM	–	0.762
E31 [4], 333.3 nM	–	1.01
E31 [4], 1000 nM	–	0.88
E31 [4], 3000 nM	–	0.874
E31 [11], 4.1 nM	1.05	–
E31 [11], 12.3 nM	0.458	–
E31 [11], 37 nM	0.506	–
E31 [11], 111.1 nM	0.946	–
E31 [11], 333.3 nM	0.547	–
E31 [11], 1000 nM	0.532	–
E31 [11], 3000 nM	1.19	–
E34 [5], 4.1 nM	–	0.994
E34 [5], 12.3 nM	–	0.901
E34 [5], 37 nM	–	0.957
E34 [5], 111.1 nM	–	0.923
E34 [5], 333.3 nM	–	0.896
E34 [5], 1000 nM	–	0.974
E34 [5], 3000 nM	–	0.91
E34 [12], 4.1 nM	1.83	–
E34 [12], 12.3 nM	0.749	–
E34 [12], 37 nM	0.609	–
E34 [12], 111.1 nM	0.331	–
E34 [12], 333.3 nM	0.663	–
E34 [12], 1000 nM	0.609	–
E34 [12], 3000 nM	0.89	–
E57 [6], 4.1 nM	–	0.993
E57 [6], 12.3 nM	–	0.914
E57 [6], 37 nM	–	0.948
E57 [6], 111.1 nM	–	0.926
E57 [6], 333.3 nM	–	0.952
E57 [6], 1000 nM	–	0.889
E57 [6], 3000 nM	–	1.2
E57 [13], 4.1 nM	1.05	–
E57 [13], 12.3 nM	0.805	–
E57 [13], 37 nM	0.596	–
E57 [13], 111.1 nM	0.728	–
E57 [13], 333.3 nM	0.352	–
E57 [13], 1000 nM	0.966	–
E57 [13], 3000 nM	0.872	–
FT3469 [7], 4.1 nM	–	1.11
FT3469 [7], 12.3 nM	–	0.948
FT3469 [7], 37 nM	–	1.02
FT3469 [7], 111.1 nM	–	0.934
FT3469 [7], 333.3 nM	–	1
FT3469 [7], 1000 nM	–	1.06
FT3469 [7], 3000 nM	–	0.997
FT3469 [14], 4.1 nM	1.76	–
FT3469 [14], 12.3 nM	1.1	–
FT3469 [14], 37 nM	0.901	–
FT3469 [14], 111.1 nM	0.672	–
FT3469 [14], 333.3 nM	1.85	–
FT3469 [14], 1000 nM	0.516	–
FT3469 [14], 3000 nM	0.354	–
